Data: patent US20030215529A1, “Composition and pharmaceutical preparation containing same for the treatment of herpes and related viral infections” (Dalhousie University, priority 1998, published 2003)
In brackets after ≈: the same amount, converted by molar mass.

How the values were obtained:
[1] = test system: wild-type HSV-1; assay: Penetration assay, wild-type HSV-1 into Vero cells; assay type: cell-based, herpes simplex virus type 1
Protocol: (§1) Penetration Assay. The penetration assay was conducted using the method as described in Example with modifications. Confluent Vero cell monolayers in 25 ml tissue culture flasks were chilled to 4° C. for 45 mm. The monolayers were infected with 300 pfu of HSV-1 in 2.5 ml of cold MEM Earle's medium. Attachment was synchronized for 1 h at 4° C. The flasks were washed twice with 4 ml of cold PBS to remove any unbound virus. The monolayers were covered with 5 ml of maintenance medium and shifted to 37° C. […] The flasks were incubated at 37° C. for 90 min, after which the monolayers were washed twice with 4 ml of PBS and covered with 10 ml of 0.8% methylcellulose in maintenance medium. Plaque formation was allowed at 37° C. for 72 h. For the citrate buffer treated group, 3 ml of buffer was added to the monolayers for 1 min. The cells were washed twice with PBS, after which medium was added to allow plaque formation. For the no treatment control group, following medium removal, the monolayers were washed twice with PBS and medium added to allow plaque formation.
Citrate buffer at pH 3 represents the penetration kinetics of HSV into Vero cells. The low pH removes adherent virus particles from the cell surface (i.e., those that have not yet penetrated). At time 20 min, all the wild type virus particles have penetrated and can not be removed by the low pH buffer (Table 6). […] This reduction is less obvious than the heparin treatment. At time 0 min, only 19% of the virus could penetrate and form plaque as compared to 49% in the heparin treatment.

[2] = test system: gC-deficient HSV-1, Delta gC2-3; assay: Binding competition experiment, Delta gC2-3; assay type: cell-based, herpes simplex virus type 1; settings: mixed with virus and used immediately
Protocol: (§2) The anti-herpes effect of sodium heparin was further investigated by a binding competition experiment. In this experiment, 0.5 ml samples of HSV-1 (about 100 pfu) were mixed with 0.5 ml of sodium heparin at different concentrations. The mixtures were immediately used to infect Vero cells at 37° C. for 1 h. Following the incubation, the number of plaques were determined in the plaque assay. […] At 1 mg/ml heparin, the % plaque inhibition was 92%. Similar results were obtained when the gC-deficient HSV-1, Delta gC2-3, was used. In which case, the % plaque inhibition for 62.5 μg/ml and 1 mg/ml heparin were 77% and 86%, respectively.

[3] = test system: HSV-1 (acyclovir-sensitive strain, BW-S strain); assay: Plaque reduction assay (Example 6), HSV-1 BW-S strain on Vero cells; assay type: cell-based, herpes simplex virus type 1
[4] = test system: HSV-1 strain #15577; assay: Binding experiment: residual infectious virus after incubation with sample, strain #15577; assay type: cell-based, herpes simplex virus type 1; settings: 2 mg heparin with 10^5 pfu, 36° C., 1 h; water control = 100%
Protocol: (§3) The mixture was serially diluted in medium and the number of residual infectious virus was determined by the plaque assay. The number of plaque developed in the water treatment control was taken as 100%.

[5] = test system: HSV-1 strain Delta gC2-3; assay: Binding experiment: residual infectious virus after incubation with sample, Delta gC2-3; assay type: cell-based, herpes simplex virus type 1; settings: 2 mg heparin with 10^5 pfu, 36° C., 1 h; water control = 100%
Protocol: as §3

[6] = test system: HSV-1 strain Delta gC2-3 (glycoprotein C deficient); assay: Plaque reduction assay, glycoprotein C deficient HSV-1; assay type: cell-based, herpes simplex virus type 1; settings: strain Delta gC2-3, plaque reduction assay
[7] = test system: glycoprotein C-deficient mutant HSV-1; assay: Penetration assay, gC-deficient HSV-1 mutant into Vero cells; assay type: cell-based, herpes simplex virus type 1
Protocol: as §1
However, by 60 min, all the virus particles appeared to have penetrated.

[8] = test system: HSV-1; assay: Plaque reduction assay (Example 3), HSV-1 on Vero cells; assay type: cell-based, herpes simplex virus type 1
[9] = test system: HSV-1 strain #15577; assay: Binding competition experiment, strain #15577; assay type: cell-based, herpes simplex virus type 1; settings: mixed with virus and used immediately
Protocol: as §2

[10] = test system: HSV-1; settings: Xu et al., Heterocycles 1994; cited from earlier work
[11] = test system: HSV-1, Strain no. SM44; assay: HSV-1 skin lesion model in guinea pigs; assay type: in vivo, guinea pig; settings: for Extent of Skin Pathological Changes EPC (Mean ± SD) / Inhibition rate IR: Acyclovir cream 3 g %
Description: Material. […] Virus is Herpes simplex type 1 (HSV-1, Strain no. SM44), imported from The American Type Culture Collection. The virus strain was proliferated and preserved by the Department of Virological Diagnosis, Institution of Virology, Chinese Preventative Medical Academy. “Bunched needle” refers to seven individual needles (size No. 7) bunched together as one bunch and seven bunches were put together as one “Bunched needle”. Other related apparatuses: All other apparatuses and reagents were provided by the Department of Virological Diagnosis, Chinese Preventative Medical Academy.
Animals: Guinea pigs, half male and half female, 200-250 grams (animal license no. YDHZ SCXK11-00-0006), supplied by the Animal Center of the Chinese Medical Academy and Peking Union Medical College.
HSV-1 cutaneous lesion in guinea pig. The animals were grouped in 5. Animals within each group will be the same gender and have similar body weight. The hair was removed from dorsal side of the animal and the skin was abraded with needles as described above. The entire abraded area was infected with 150 μl of HSV-1 stock suspension.
Typical herpes lesions appeared on the infected area on the 4th day of infection. The extent of pathological changes was scored as described below. […] The amount of cream given to each animal was 1.5 gram per dose twice daily for a six-day duration.
Daily records of the pathological changes infected area were made according to the following criteria:
When the skin lesions developed up to ¼ of the total area, the pathological changes were scored as 1.0-1.6;
When the skin lesions developed on 2/4 of the total area, the pathological changes were scored as 1.7-2.4;
When the skin developed on ¾ of the total area, the pathological changes were scored as 2.5-3.2;
When the skin lesions developed 4/4 of the total areas, the pathological changes were scored as 3.3-4.0;
When the skin herpes scars developed up to ¼ of the total areas, the pathological changes were scored as 0.9-1.0;
When the skin herpes scars were up to 2/4 of the total areas, the pathological changes were scored as 0.7-0.8;
When the skin herpes scars were up to ¾ of the total areas, the pathological changes were scored as 0.5-0.6;
When the skin herpes scars were up to 4/4 of the total areas, the pathological changes were scored as 0.2-0.4;
When the skin herpes scars were all detached and lesions healed, the pathological changes were scored as 0.

[12] = test system: HSV-2, Strain no. 333; assay: Recovery of HSV-2 from vaginal samples of infected mice (CPE on Vero cells); assay type: in vivo, BALB/c mice; settings: Acyclovir cream 3 g %
[13] = test system: HSV-2, Strain no. 333; assay: HSV-2 mouse vaginal infection model, survival; assay type: in vivo, BALB/c mice; settings: 3% Acyclovir cream
Protocol: (Batch no. 200205), provided by the Department of Biology, the Chinese University of Hong Kong, Hong Kong. […] Virus is Herpes simplex type II (HSV-2, Strain no. 333, batch no. 200104010), provided by the Department of Virological Diagnosis, Institution of Virology, Chinese Preventative Medical Academy. Needles for vaginal tract infection (size no. of 12) were prepared by the Department of Virological Diagnosis, Chinese Preventative Medical Academy. African green monkey kidney cells (Vero cells) were provided by the Department of Virological Diagnosis, Chinese Preventative Medical Academy. Physiological saline and cell culture medium was provided by the Department of Virological Diagnosis, Chinese Preventative Medical Academy. Inverted microscope was provided by the Department of Virological Diagnosis, Chinese Preventative Medical Academy. Carbon dioxide incubator was provided by the Department of Virological Diagnosis, Chinese Preventative Medical Academy. And other related apparatuses: provided by the Department of Virological Diagnosis, Chinese Preventative Medical Academy.
Animals: BALB/c mice, female, body weight range of 18-20 grams. Animal license no. YDHZ 01-3003, supplied by the Animal Center of the Chinese Medical Academy and Peking Union Medical College.
1. Target of the experiments: The mice could develop viral vaginitis following infection with HSV-2. […] Statistical analysis, t values and p values, was calculated in comparison with the virus control group. Efficacy of the testing samples will be evaluated on the basis of statistical calculation.
2. […] The number of animals per group was 10. Ten additional animals that were not infected with HSV-2 and received no treatment served as the uninfected control group.
Treatment began on day 3 post-infection. This was achieved by applying the cream to the vaginal tract with cotton swabs. The creams were given at a dose of 2 mg per mouse twice daily for a six-day duration. Mortality and the number of days for lethality to occur were recorded. The experiment was repeated twice. The protection rates and life span extension rates were calculated. The efficacy of testing agents were judged in comparison with the […] on the basis of the calculated t values and p values.
The survival rate and number of days for lethality to occur were recorded. The latter was expressed as the average life span in days.

[14] = Tabba et al.; cited from earlier work
[15] = test system: HSV-induced cell fusion; settings: Srinivas et al.; cited from earlier work
[16] = Heparin 1000 μg/ml added at Time 0 min
[17] = Heparin 1000 μg/ml added at Time 10 min
[18] = Heparin 1000 μg/ml added at Time 20 min

Compound: heparin
- % Plaques [1, 16]: 49%
- % Plaques ([1]; Heparin 1000 μg/ml added at Time 2 min): 57%
- % Plaques ([1]; Heparin 1000 μg/ml added at Time 4 min): 88%
- % Plaques ([1]; Heparin 1000 μg/ml added at Time 6 min): 86%
- % Plaques [1, 17]: 100%
- % Plaques ([1]; Heparin 1000 μg/ml added at Time 15 min): 100%
- % Plaques [1, 18]: 100%
- % plaque inhibition ([2]; 62.5 μg/ml): 77%
- % plaque inhibition ([2]; 1 mg/ml): 86%
- anti-HSV-1 IC50 [3]: 300 mg/L
- original virus still infectious [4]: 30%
- original virus still infectious [5]: 42%
- IC50 [6]: > 1000 mg/L
- % Plaques [7, 16]: 62%
- % Plaques [7, 17]: 90%
- % Plaques [7, 18]: 100%
- % Plaques ([7]; Heparin 1000 μg/ml added at Time 30 min): 100%
- % Plaques ([7]; Heparin 1000 μg/ml added at Time 40 min): 100%
- % Plaques ([7]; Heparin 1000 μg/ml added at Time 50 min): 84%
- % Plaques ([7]; Heparin 1000 μg/ml added at Time 60 min): 100%
- effects on the penetration of the gC-deficient mutant into Vero cells ([7]; heparin 1000 μg/ml, in words): no apparent effects
- IC50 ([8]; HSV-1 strain #15577, plaque reduction assay): 750 mg/L
- IC50 values ([8]; plaque reduction assay, added 1 h after virus, strains 15577 and Delta gC2-3): 750 to 1000 mg/L
- % plaque inhibition ([9]; 62.5 μg/ml): 88%
- % plaque inhibition ([9]; 1 mg/ml): 92%

Compound: geponin
- IC50 against HSV-1 [10]: 25 mg/L

Compound: Nc1nc2c(ncn2COCCO)c(=O)[nH]1 [Acyclovir]
- Extent of Skin Pathological Changes EPC (Mean ± SD) ([11]; Day 4 (start of treatment)): 3.87 ± 0.12 cm^2
- Inhibition rate IR ([11]; Day 4 (start of treatment)): 0%
- Extent of Skin Pathological Changes EPC (Mean ± SD) ([11]; Day 5): 3.54 ± 0.22 cm^2
- Inhibition rate IR ([11]; Day 5): 11%
- Extent of Skin Pathological Changes EPC (Mean ± SD) ([11]; Day 6): 2.77 ± 0.40 cm^2
- Inhibition rate IR ([11]; Day 6): 30%
- Extent of Skin Pathological Changes EPC (Mean ± SD) ([11]; Day 7): 2.02 ± 0.30 cm^2
- Inhibition rate IR ([11]; Day 7): 44%
- Extent of Skin Pathological Changes EPC (Mean ± SD) ([11]; Day 8): 1.21 ± 0.38 cm^2
- Inhibition rate IR ([11]; Day 8): 63%
- Extent of Skin Pathological Changes EPC (Mean ± SD) ([11]; Day 9): 0.82 ± 0.16 cm^2
- Inhibition rate IR ([11]; Day 9): 71%
- Extent of Skin Pathological Changes EPC (Mean ± SD) ([11]; Day 10): 0.38 ± 0.18 cm^2
- Inhibition rate IR ([11]; Day 10): 84%
- Extent of Skin Pathological Changes EPC (Mean ± SD) ([11]; Day 11): 0.09 ± 0.19 cm^2
- Inhibition rate IR ([11]; Day 11): 96%
- signs of paralysis in lower limbs ([11]; cream-treated groups, seen in some animals of the virus control group): not observed
- Therapeutic Rate [12]: 71%
- No. of samples containing HSV-2 After Treatment ([12]; 30 vaginal samples): 8
- No. of samples containing HSV-2 Before Treatment ([12]; 30 vaginal samples): 30
- Life Span Extension Rate [13]: 81.2%
- Protection Rate [13]: 78.6%
- Survival [13]: 80%
- No. of death ([13]; 30 animals): 6
- No. of survival ([13]; 30 animals): 24
- Life Span Extension Rate ([13]; listed as acyclovir): 81.3%

Compound: prunellin
- pH in aqueous solution [14]: 7.4

Compound: apolipoprotein A-I: high density serum apolipoprotein A-I
- concentration inhibiting HSV-induced cell fusion [15]: 1 µM

Compound: O=Cc1cc(O)c(O)c(O)c1 [gallic aldehyde]
- IC50 against HSV-1 [10]: 12.5 mg/L (≈ 81.1 µM)
